How the values were obtained:
[1] = test system: defensin/elafin mRNA in immortalized human keratinocytes (HaCaT cells); assay: RT-qPCR of innate peptide expression in non-infected immortalized keratinocytes (TNFα/LPS, siRNA, inhibitors); assay type: cell-based; conditions: for Elafin expression / HBD2 expression / HBD3 expression / HBD4 expression: siGL3, TNF alpha +
[2] = test system: HPV E7 oncoprotein with IKK complex or β-catenin destruction complex proteins; assay: Gaussia princeps luciferase complementation assay (GPCA); assay type: binding, human papillomavirus / human; conditions: for GPCA signal, interaction with CK1a1: partner CK1a1; for GPCA signal, interaction with CK1 alpha 1: partner CK1 alpha 1, Fig 4M; for GPCA signal, interaction with CK1e: partner CK1e; for GPCA signal, interaction with CK1g1: partner CK1g1; for GPCA signal, interaction with CK1g2: partner CK1g2; for GPCA signal, interaction with CK1g3: partner CK1g3; for GPCA signal, interaction with CK1d: partner CK1d; for GPCA signal, interaction with DVL1: partner DVL1; for GPCA signal, interaction with DVL2: partner DVL2; for GPCA signal, interaction with DVL3: partner DVL3; for GPCA signal, interaction with GSK3B: partner GSK3B; for GPCA signal, interaction with NEMO: partner NEMO, Fig 3K; for GPCA signal, interaction with PPP2CA: partner PPP2CA; for GPCA signal, interaction with PPP2CB: partner PPP2CB
From the text: The coding (or mutated/truncated) sequences of HPV E7 from several alpha and beta genotypes (alpha: HPV16, 18, 33, and 39; beta: HPV8, 38, and 49) were transferred into Gateway-compatible GPCA destination vector pSPICA-N2. The open reading frames (ORFs) encoding proteins involved in IKK or β-catenin destruction complex were obtained from the human ORFeome v7.1 and 8.1 (Dana-Farber Cancer Institute, Boston, MA, USA) and were transferred into pSPICA-N1 plasmid. GPCA expression vectors (pSPICA-N1 and N2) allow the expression of two complementary fragments of the G. princeps luciferase (Gluc1 or Gluc2) linked to the N-terminal ends of tested proteins. All constructions were controlled by Sanger sequencing (GIGA-Genomics platform, University of Liege). GPCA experiments were then performed as extensively described previously[90],[91]. Briefly, HEK-293T cells were simultaneously transfected with 100 ng of pSPICA-N1-IKK or β-catenin destruction complex proteins and 100 ng of pSPICA-N2-E7 using PEI Max (Polysciences, Warrington, PA, USA). After 24 h, cells were washed, lysed and luciferase enzymatic activity was measured for 10 seconds using a Centro LB960 microplate luminometer (Berthold Technologies, Bad Wildbad, Germany). The luciferase assay system was purchased from Promega. As previously described, results were expressed as a luminescence value normalized over the sum of controls [normalized luminescence ratio (NLR)].

[3] = test system: innate peptide mRNA (SLPI, S100A7, Elafin, HBD1-4, HD-5, HD-6) in CTRL and E6E7 cells; assay: RT-qPCR of innate peptide expression in CTRL and E6E7 keratinocytes, Control / LPS / TNF alpha (Fig 2D); assay type: cell-based, human;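 note: mRNA level normalized to HPRT mRNA of the same sample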

Cc1ccc(S(=O)(=O)/C=C/C#N)cc1 [BAY 11-7082, reference compound]
TNFα/LPS-induced defensin/elafin mRNA levels [1]: significant decrease

HPV16 E7
GPCA signal, interaction with Beta-TrCP ([2]; partner Beta-TRCP, Fig 4L, replicate 1): 8.518 | GPCA signal, interaction with Beta-TrCP ([2]; partner Beta-TRCP, Fig 4L, replicate 2): 8.927 | GPCA signal, interaction with Beta-TrCP ([2]; partner Beta-TRCP, Fig 4L, replicate 3): 6.394 | GPCA signal, interaction with Beta-TrCP ([2]; partner Beta-TrCP, Fig 4N, replicate 1): 8.216 | GPCA signal, interaction with Beta-TrCP ([2]; partner Beta-TrCP, Fig 4N, replicate 2): 18.6197 | GPCA signal, interaction with Beta-TrCP ([2]; partner Beta-TrCP, Fig 4N, replicate 3): 12.6285 | GPCA signal, interaction with CK1a1 ([2]; Fig 4L, replicate 1): 4.195 | GPCA signal, interaction with CK1a1 ([2]; Fig 4L, replicate 2): 4.4237 | GPCA signal, interaction with CK1a1 ([2]; Fig 4L, replicate 3): 4.5837 | GPCA signal, interaction with CK1 alpha 1 ([2]; replicate 1): 4.747 | GPCA signal, interaction with CK1 alpha 1 ([2]; replicate 2): 7.358 | GPCA signal, interaction with CK1 alpha 1 ([2]; replicate 3): 7.5013 | GPCA signal, interaction with CK1e ([2]; Fig 4L, replicate 1): 2.875 | GPCA signal, interaction with CK1e ([2]; Fig 4L, replicate 2): 2.433 | GPCA signal, interaction with CK1e ([2]; Fig 4L, replicate 3): 2.765 | GPCA signal, interaction with CK1g1 ([2]; Fig 4L, replicate 1): 13.8547 | GPCA signal, interaction with CK1g1 ([2]; Fig 4L, replicate 2): 9.7345 | GPCA signal, interaction with CK1g1 ([2]; Fig 4L, replicate 3): 4.265 | GPCA signal, interaction with CK1g2 ([2]; Fig 4L, replicate 1): 8.184 | GPCA signal, interaction with CK1g2 ([2]; Fig 4L, replicate 2): 7.066 | GPCA signal, interaction with CK1g2 ([2]; Fig 4L, replicate 3): 7.286 | GPCA signal, interaction with CK1g3 ([2]; Fig 4L, replicate 1): 8.632 | GPCA signal, interaction with CK1g3 ([2]; Fig 4L, replicate 2): 7.582 | GPCA signal, interaction with CK1g3 ([2]; Fig 4L, replicate 3): 7.146 | GPCA signal, interaction with CK1d ([2]; Fig 4L, replicate 1): 4.409 | GPCA signal, interaction with CK1d ([2]; Fig 4L, replicate 2): 3.975 | GPCA signal, interaction with CK1d ([2]; Fig 4L, replicate 3): 4.309 | GPCA signal, interaction with DVL1 ([2]; Fig 4L, replicate 1): 3.768 | GPCA signal, interaction with DVL1 ([2]; Fig 4L, replicate 2): 3.207 | GPCA signal, interaction with DVL1 ([2]; Fig 4L, replicate 3): 4.087 | GPCA signal, interaction with DVL2 ([2]; Fig 4L, replicate 1): 1.678 | GPCA signal, interaction with DVL2 ([2]; Fig 4L, replicate 2): 1.485 | GPCA signal, interaction with DVL2 ([2]; Fig 4L, replicate 3): 1.904 | GPCA signal, interaction with DVL3 ([2]; Fig 4L, replicate 1): 1.994 | GPCA signal, interaction with DVL3 ([2]; Fig 4L, replicate 2): 1.934 | GPCA signal, interaction with DVL3 ([2]; Fig 4L, replicate 3): 1.325 | GPCA signal, interaction with GSK3B ([2]; Fig 4L, replicate 1): 9.854 | GPCA signal, interaction with GSK3B ([2]; Fig 4L, replicate 2): 8.937 | GPCA signal, interaction with GSK3B ([2]; Fig 4L, replicate 3): 8.081 | GPCA signal, interaction with NEMO ([2]; replicate 1): 28.7366 | GPCA signal, interaction with NEMO ([2]; replicate 2): 37.4793 | GPCA signal, interaction with NEMO ([2]; replicate 3): 29.9172 | GPCA signal, interaction with PPP2CA ([2]; Fig 4L, replicate 1): 1.175 | GPCA signal, interaction with PPP2CA ([2]; Fig 4L, replicate 2): 1.457 | GPCA signal, interaction with PPP2CA ([2]; Fig 4L, replicate 3): 0.9985 | GPCA signal, interaction with PPP2CB ([2]; Fig 4L, replicate 1): 2.065 | GPCA signal, interaction with PPP2CB ([2]; Fig 4L, replicate 2): 1.7166 | GPCA signal, interaction with PPP2CB ([2]; Fig 4L, replicate 3): 1.3201

TNFα
Elafin expression ([3]; CTRL cells, replicate 1): 5.073 | HBD1 expression ([3]; CTRL cells, replicate 1): 0.2367 | HBD2 expression ([3]; CTRL cells, replicate 1): 3.658 | HBD3 expression ([3]; CTRL cells, replicate 1): 3.171 | HBD4 expression ([3]; CTRL cells, replicate 1): 2.287 | HD-5 expression ([3]; CTRL cells, replicate 1): 0.3567 | HD-6 expression ([3]; CTRL cells, replicate 1): 1.388 | S100A7 expression ([3]; CTRL cells, replicate 1): 0.722 | SLPI expression ([3]; CTRL cells, replicate 1): 0.646 | Elafin expression ([3]; CTRL cells, replicate 2): 4.065 | HBD1 expression ([3]; CTRL cells, replicate 2): 1.168 | HBD2 expression ([3]; CTRL cells, replicate 2): 4.597 | HBD3 expression ([3]; CTRL cells, replicate 2): 4.307 | HBD4 expression ([3]; CTRL cells, replicate 2): 2.172 | HD-5 expression ([3]; CTRL cells, replicate 2): 2.274 | HD-6 expression ([3]; CTRL cells, replicate 2): 2.604 | S100A7 expression ([3]; CTRL cells, replicate 2): 0.3271 | SLPI expression ([3]; CTRL cells, replicate 2): 2.0642 | Elafin expression ([3]; CTRL cells, replicate 3): 7.706 | HBD1 expression ([3]; CTRL cells, replicate 3): 0.2415 | HBD2 expression ([3]; CTRL cells, replicate 3): 6.118 | HBD3 expression ([3]; CTRL cells, replicate 3): 2.998 | HBD4 expression ([3]; CTRL cells, replicate 3): 5.397 | HD-5 expression ([3]; CTRL cells, replicate 3): 2.494 | HD-6 expression ([3]; CTRL cells, replicate 3): 1.116 | S100A7 expression ([3]; CTRL cells, replicate 3): 1.785 | SLPI expression ([3]; CTRL cells, replicate 3): 1.2988 | Elafin expression ([3]; CTRL cells, replicate 4): 14.6325 | HBD1 expression ([3]; CTRL cells, replicate 4): 1.1843 | HBD2 expression ([3]; CTRL cells, replicate 4): 11.5149 | HBD3 expression ([3]; CTRL cells, replicate 4): 3.1783 | HBD4 expression ([3]; CTRL cells, replicate 4): 3.11 | HD-5 expression ([3]; CTRL cells, replicate 4): 8.229 | HD-6 expression ([3]; CTRL cells, replicate 4): 1.904 | S100A7 expression ([3]; CTRL cells, replicate 4): 0.4855 | SLPI expression ([3]; CTRL cells, replicate 4): 0.7519 | Elafin expression ([3]; E6E7 cells, replicate 1): 0.006506 | HBD1 expression ([3]; E6E7 cells, replicate 1): 0.08614 | HBD2 expression ([3]; E6E7 cells, replicate 1): 2.123 | HBD3 expression ([3]; E6E7 cells, replicate 1): 0.6511 | HBD4 expression ([3]; E6E7 cells, replicate 1): 0.3771 | HD-5 expression ([3]; E6E7 cells, replicate 1): 0.1042 | HD-6 expression ([3]; E6E7 cells, replicate 1): 1.213 | S100A7 expression ([3]; E6E7 cells, replicate 1): 1.453e-5 | SLPI expression ([3]; E6E7 cells, replicate 1): 0.0293 | Elafin expression ([3]; E6E7 cells, replicate 2): 0.03758 | HBD1 expression ([3]; E6E7 cells, replicate 2): 0.1065 | HBD2 expression ([3]; E6E7 cells, replicate 2): 0.4899 | HBD3 expression ([3]; E6E7 cells, replicate 2): 2.311 | HBD4 expression ([3]; E6E7 cells, replicate 2): 0.789 | HD-5 expression ([3]; E6E7 cells, replicate 2): 1.126 | HD-6 expression ([3]; E6E7 cells, replicate 2): 0.08436 | S100A7 expression ([3]; E6E7 cells, replicate 2): 1.453e-5 | SLPI expression ([3]; E6E7 cells, replicate 2): 0.1199 | Elafin expression ([3]; E6E7 cells, replicate 3): 0.01347 | HBD1 expression ([3]; E6E7 cells, replicate 3): 0.06181 | HBD2 expression ([3]; E6E7 cells, replicate 3): 2.314 | HBD3 expression ([3]; E6E7 cells, replicate 3): 0.09282 | HBD4 expression ([3]; E6E7 cells, replicate 3): 1.611 | HD-5 expression ([3]; E6E7 cells, replicate 3): 0.8629 | HD-6 expression ([3]; E6E7 cells, replicate 3): 0.3418 | S100A7 expression ([3]; E6E7 cells, replicate 3): 8.731e-6 | SLPI expression ([3]; E6E7 cells, replicate 3): 0.005195 | Elafin expression ([3]; E6E7 cells, replicate 4): 0.01173 | HBD1 expression ([3]; E6E7 cells, replicate 4): 0.009073 | HBD2 expression ([3]; E6E7 cells, replicate 4): 0.5342 | HBD3 expression ([3]; E6E7 cells, replicate 4): 0.8751 | HBD4 expression ([3]; E6E7 cells, replicate 4): 0.9721 | HD-5 expression ([3]; E6E7 cells, replicate 4): 1.847 | HD-6 expression ([3]; E6E7 cells, replicate 4): 0.557 | S100A7 expression ([3]; E6E7 cells, replicate 4): 8.0162e-6 | SLPI expression ([3]; E6E7 cells, replicate 4): 0.029 | HβD2-4 expression (RT-qPCR) ([1]; immortalized keratinocytes, TNFα 20 ng/ml, normalized to HPRT, n = 4): highly stimulated | Elafin expression ([1]; replicate 1): 6.99 | HBD2 expression ([1]; replicate 1): 14.1 | HBD3 expression ([1]; replicate 1): 4.31 | HBD4 expression ([1]; replicate 1): 5.27 | Elafin expression ([1]; replicate 2): 3.11 | HBD2 expression ([1]; replicate 2): 7.45 | HBD3 expression ([1]; replicate 2): 7.5 | HBD4 expression ([1]; replicate 2): 1.23 | Elafin expression ([1]; replicate 3): 6.23 | HBD2 expression ([1]; replicate 3): 7.27 | HBD3 expression ([1]; replicate 3): 4.03 | HBD4 expression ([1]; replicate 3): 3.86
